Data as given in patent publication US11993640B2, “Treating inflammatory lung disease” (United States Government as represented by the Department …, priority 2019, dated 2024).
Non-standard residues stand in square brackets, D forms with d. Residues, ends and D or L forms follow the SMILES beside them. *: point of attachment. Phenylacetyl(2,3,4,5,6-F5) = O=C(Cc1c(F)c(F)c(F)c(F)c1F)*; Phe(F5) = N[C@@H](Cc1c(F)c(F)c(F)c(F)c1F)C(=O)O; hArg = N=C(N)NCCCC[C@H](N)C(=O)O; 12Ado = NCCCCCCCCCCCC(=O)O; Nle = CCCC[C@H](N)C(=O)O; Orn = NCCC[C@H](N)C(=O)O; Abu = CC[C@H](N)C(=O)O; PhAc = O=C(Cc1ccccc1)*

Assays:
KATOIII cells = test: In vitro cell viability, stomach cancer KATOIII; format: cell-based, human; details: 5 μM, 72 h; relative to MIA602 = 1; Table 3A
In short: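 Cells grown to ~60% confluence, starved 24 h in 0.5% FBS medium, then exposed to antagonists at 1, 2.5 or 5 μM or 0.1% DMSO vehicle for 72 h, in quintuplicate with medium renewed every 48 h. Viability by CellTiter 96 AQueous One; reported as inhibitory potency relative to MIA602.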

NCI-N87 xenograft = test: Xenograft tumor growth in nude mice, stomach cancer N87; format: in vivo; details: Panel D, 10 weeks
Description: The peptides' activity was compared with GHRH antagonist MIA-602. All statistical analyzses were performed from comparing GHRA antagonists to non-treated tumor (control).
Peptides and chemicals. GHRH antagonists MIA-602 and AVR-GHRH antagonists (see Table 2 above) were synthesized by solid phase methods and purified by HPLC. The peptides were dissolved in DMSO and further diluted in 10% 1, 2-propanediol. The final concentration of peptides was 50 µg/ml in 10% 1, 2-propanediol containing 0.1% of DMSO.
(§1) Cell culture. Human cancer cell lines including pancreatic (PANC-1 and CFPAC-1), lung (HCC827 and H460), stomach (NCI-N87), prostate (PC3), brest (MX-1 and HCC-1806), colorectal (HT-29), and ovarian (SK-OV-3 and OVCAR-3) were obtained from the American Type Culture Collection (ATCC) and cultured at 37° C. in a humidified 95% air/5% CO2 atmosphere in the medium recommended by ATCC.
Xenograft models of human cancers in nude mice. Female athymic (NCr nu/nu) nude mice, 5-to 6-weeks-old, obtained from the Envigo labs (Tampa, FL), were housed in laminar airflow cabinets under pathogen-free conditions with a 12-h light/12-h dark schedule, and were fed autoclaved standard chow and water. To generate mice with xenografted tumors, tumor xenografts were initiated by subcutaneous (s.c.) injection of […] human cancer cells into female nude mice. After about 4 weeks the resulting tumors were dissected and collected after removing necrosis tissues. The tumors were then cut into particles with size of ˜3 mm3 and transplanted s.c. by trocar needle into experimental animals. When tumors grew to the size of 50-60 mm3 (by volume), […] of 5 μg of GHRH antagonists MIA-602 or AVR-compounds (2-10 μg as indicated), or vehicle solutions (0.1% DMSO in 10% 1, 2-propanediol) respectively. Tumor sizes were measured weekly.
Statistical analysis. One-way ANOVA followed by Bonferroni comparison were performed. Data are expressed as Mean±SEM. To determine statistical significance between animal groups, two-tailed Student's t-test was conducted. Differences were considered significant when p<0.05.
Results. […] FIG. 1A-N represents in vivo inhibition of tumor growth during the treatment with GHRH antagonist MIA-602 and selected AVR antagonists in nude mice xenografted with various human tumors including pancreatic cancer PANC-1 (FIG. 1A) and CFPAC-1 (FIG. 1I); lung cancer HCC827 (FIGS. 1B, C) and H460 (FIG. 1H); stomach cancer N87 (FIGS. 1D-F); colon cancer HT-29 (FIG. 1G); breast cancer MX-1 and HCC-1806 (FIGS. 1J, K); ovarian cancer SK-OV-3 and OVACAR-3 (FIGS. 1L, M) and prostate cancer PC3 (FIG. 1N). See also Table 5.

HT-29 cells = test: In vitro cell viability, colon cancer HT-29; format: cell-based, human; details: 5 μM, 72 h; Table 3B
Description: The inhibitory effects of the various synthesized GHRH antagonists were tested in cell proliferation assays in various human cancer cell lines including stomach cancer (KATOIII, N87), colon cancer (HT-29), urothelial cancer (J82, RT4), pancreatic cancer (PANC-1, CFPAC-1), prostatic cancer (PC3), breast cancer (MX-1, HCC1806), ovarian cancer (SK-OV-3, OVCAR-3) and lung cancer (HCC827, H460).
as §1, with “(NCI-N87 and KATOIII), urothelial (J82, RT4), prostatic” for “(NCI-N87), prostate”, “breast” for “brest”, “HCC 1806),” for “HCC-1806),”
In vitro cell viability. Cell viability was analyzed as follows: cancer cells including pancreatic (PANC-1 and CFPAC-1), lung (HCC827 and H460), stomach (NCI-N87 and KATOIII), urothelial (J82, RT4), prostatic (PC3) and breast (MX-1 and HCC 1806), colorectal (HT-29) and ovarian (SK-OV-3 and OVCAR-3) were grown on 96 well plates to ˜60% confluence, the cells were starved for 24 h in culture medium containing 0.5% FBS. […] Cell viability was measured using CellTiter 96 aqueous one solution kit (Promega). […]

Structure (SMILES) | Relative inhibitory potency, Stomach KATOIII (KATOIII cells) | Tumor Growth % (NCI-N87 xenograft; 2 μg/day s.c.) | % Inhibition (NCI-N87 xenograft; 2 μg/day s.c., vs control) | Tumor Growth % (NCI-N87 xenograft; 5 μg/day s.c.) | In vitro relative inhibitory potency in comparison to MIA-602, HT-29 (HT-29 cells)
CCCC[C@H](NC(=O)[C@@H](NC(=O)[C@H](CC(=O)O)NC(=O)[C@H](CCC(N)=O)NC(=O)[C@H](CC(C)C)NC(=O)[C@H](CC(C)C)NC(=O)[C@H](CCCN)NC(=O)[C@H](Cc1c[nH]cn1)NC(=O)[C@H](C)NC(=O)[C@H](CO)NC(=O)[C@H](CC(C)C)NC(=O)[C@H](CCC(N)=O)NC(=O)[C@H](CC)NC(=O)[C@H](CC(C)C)NC(=O)[C@@H](NC(=O)[C@H](CCCN)NC(=O)[C@H](Cc1c[nH]cn1)NC(=O)[C@H](Cc1ccc(OC)cc1)NC(=O)[C@H](CCCCNC(=N)N)NC(=O)[C@H](C)NC(=O)[C@@H](NC(=O)[C@H](Cc1c(F)c(F)c(F)c(F)c1F)NC(=O)[C@@H](NC(=O)[C@H](C)NC(=O)[C@H](CC(=O)O)NC(=O)[C@@H](CCCNC(=N)N)NC(=O)[C@H](Cc1ccc(O)cc1)NC(=O)CCCCCCCCCCCNC(=O)Cc1ccccc1)[C@@H](C)CC)[C@@H](C)O)C(C)C)[C@@H](C)CC)C(=O)N[C@H](CCCNC(=N)N)C(=O)N[C@@H](CCCCNC(=N)N)C(N)=O [MIA-602, PhAC-Ada, Tyr D-Arg, Asp, Ala, Ile, 5FPhe, Thr, Ala, Har, Tyr(Me), His, Orn, Val, Leu, Abu, Gin, Leu, Ser, Ala, His, Orn, Leu, Leu, Gin, Asp, Ile, Nle, D-Arg, Har NH2, reference compound] ({PhAc-12Ado}-Y[dR]DAI[Phe(F5)]TA[hArg]Y(Me)H[Orn]VL[Abu]QLSAH[Orn]LLQDI[Nle][dR][hArg]-NH2) | 1 | 1065.00% | 13.0% | 767.00% | 1
CCCC[C@H](NC(=O)[C@@H](NC(=O)[C@H](CC(=O)O)NC(=O)[C@H](CCC(N)=O)NC(=O)[C@H](CC(C)C)NC(=O)[C@H](CC(C)C)NC(=O)[C@H](CCCCN)NC(=O)[C@H](CCCNC(=N)N)NC(=O)[C@H](C)NC(=O)[C@H](CO)NC(=O)[C@H](CC(C)C)NC(=O)[C@H](CCC(N)=O)NC(=O)[C@H](CC)NC(=O)[C@H](CC(C)C)NC(=O)[C@@H](NC(=O)[C@H](CCCCN)NC(=O)[C@H](CCCNC(=N)N)NC(=O)[C@H](Cc1ccc(OC)cc1)NC(=O)[C@H](CCCCNC(=N)N)NC(=O)[C@H](C)NC(=O)[C@@H](NC(=O)[C@H](Cc1c(F)c(F)c(F)c(F)c1F)NC(=O)[C@@H](NC(=O)[C@H](C)NC(=O)[C@H](CC(=O)O)NC(=O)[C@@H](CCCNC(=N)N)NC(=O)[C@H](Cc1ccc(O)cc1)NC(=O)CCCCCCCCCCCNC(=O)Cc1c(F)c(F)c(F)c(F)c1F)[C@@H](C)CC)[C@@H](C)O)C(C)C)[C@@H](C)CC)C(=O)N[C@H](CCCNC(=N)N)C(=O)N[C@@H](CCCCNC(=N)N)C(=O)NC [AVR-235] ({Phenylacetyl(2,3,4,5,6-F5)-12Ado}-Y[dR]DAI[Phe(F5)]TA[hArg]Y(Me)RKVL[Abu]QLSARKLLQDI[Nle][dR][hArg]-NHMe) | 1.220 | 558.60% | – | – | –
